In patent US20110177054A1, “USE OF ENDO-LYSOSOMAL SYSTEM AND SECRETED VESICLES (EXOSOME-LIKE) IN TREATMENTS AND DIAGNOSTICS BASED ON SMALL RNA AND EXPERIMENTAL STUDY OF SMALL RNA” (priority 2008, published 2011):

Experiments:
[1] = system: Let-7a activity in Mono-Mac6 cells; test: Let-7a dual luciferase reporter, miRNA activity after siRNA knockdown, monocytes; type: cell-based; conditions: for activity of let-7 compared to control with mutated let-7 site: Example 1, 50 nM siRNA, luciferase read 30 h later; for let-7a activity in dual-luciferase assay: Example 2, monocytes (FIG. 12d), 10 nM siRNA
Method: (§1) FIG. 4: Members of the ESCRT complex affect miRNA activity but not localization of GW182 to the MVB. (A) Confocal micrography showing cells loaded with N-Rh-PE to label the MVB one day after transfection with GFP-GW182 and 50 nM of siRNA targeting Alix or vps36. […] Knockdown of some members of the ESCRT complex inhibits activity of Let-7a. Analysis of the levels of Let-7a vs mutated site expression for the control, tsg101, vps36, hrs, alix, and GW 182. Cells were transfected with plasmids expressing Renilla luciferase attached to an intact or mutated Let-7a target site, 50 nM siRNA, and pGL3 expressing firefly luciferase (n=6). (C) Knockdown of some members of the ESCRT complex inhibits activity of miR-206. Analysis of the percentage of expression of miR-206 target for the control, tsg101, vps36, hrs, alix, and GW 182. Cells were transfected with 50 nM siRNA, plasmids expressing miR-206 or miR-K12-4 and the estrogen receptor 3′UTR inserted in the dual luciferase plasmid psiCHECK™ (Promega) (n=4). Thirty hours later luciferase activity as assessed.
For all experiments except for assays of miRNA activity 5×10^6 cells were transfected with a Nucleofector II in Solution V (Amaxa, Cologne, Germany) according to the manufacturer's instructions. For inhibition of gene expression 50 nM of siRNA was used. For experiments evaluating miRNA activity 1×10^6 cells were transfected in 100 μL culture media lacking FBS using 250 μg/mL DEAE-dextran (Promega, Charbonnieres, France). Cells were incubated 1.5 h at 37° C. Ten μL DMSO was added. After three minutes 2 mL of cell culture media was added, cells were centrifuged and resuspended in RPMI 1640 containing FBS for 30 h.
To test miRNA activity, cells were transfected with 0.2 ug plasmid expressing the 3′UTR of ESR which contains a target site for miR-206, 2 μg of either plasmid expressing miR-206 or K12-4, and 10 nM siRNA. Luciferase activity was read 30 h later, using the Dual Luciferase Reporter Assay Kit (Promega, Madison, USA) on a Glo-Max Multi fluorescence reader (Promega). In other experiments, cells were transfected with 0.2 ug plasmid expressing Renilla luciferase with two linked let-7a target sites or mutated versions thereof (FIG. 11d, constructs Let-7a and b (Doench, J. G. & Sharp, P. A. Specificity of microRNA target selection in translational repression. Genes Dev 18, 504-11 (2004)), 1 ug plasmid pGL3 expressing firefly luciferase, and 10 nM control or specific siRNA, and analyzed as above. Percent inhibition luciferase expression by specific miRNA was calculated as: e.g. tsg101 ([specific luc/control luc.]specific miRNA+tsg101 siRNA/[specific luc/control luc] control miRNA+tsg101 siRNA). Percent miRNA activity was calculated as 100−percent inhibition luciferase expression.

[2] = system: miR-206 activity in Mono-Mac6 cells; test: miR-206 / estrogen receptor 3'UTR dual luciferase reporter after siRNA knockdown, monocytes; type: cell-based; conditions: for specific activity of miR-206 (estrogen receptor-α 3'UTR reporter): Example 1, 50 nM siRNA, miR-206 vs miR-K12-4 plasmid, 30 h; for specific activity of miR-206: Example 2, monocytic cells (FIG. 12e), 10 nM siRNA
Method: as §1
Cells were transfected with 0.2 ug plasmid containing the 3′UTR (3′ untranslated region) of ESR (Estrogen Receptor) containing a target for miR-206 (Adams, B. D., Furneaux, H., & White, B. A. The micro-ribonucleic acid (miRNA) miR-206 targets the human estrogen receptor-alpha (ERalpha) and represses ERalpha messenger RNA and protein expression in breast cancer cell lines. Mol. Endocrinol. 21, 1132-1147 (2007)), 2 μg of either plasmid expressing miR-206 or K12-4, and either control siRNA or siRNA targeting tsg101, vps36, hrs, alix, or GW182 (50 nM). Luciferase activity was read 30 h later, using the Dual Luciferase Reporter Assay Kit (Promega, Madison, USA) on a Glo-Max Multi fluorescence reader (Promega). Percent increase in siRNA activity was calculated as (e.g. tsg101): ([Firefly/Renilla luciferase] K4 miRNA+tsg101 siRNA/[Firefly/Renilla luciferase]+206 miRNA+tsg101 siRNA)/([Firefly/Renilla luciferase]+miRNA K4+control siRNA/[Firefly/Renilla luciferase]+miRNA 206+control siRNA).
For all experiments except for assays of miRNA activity 5×10^6 cells were transfected with a Nucleofector II in Solution V (Amaxa, Cologne, Germany) according to the manufacturer's instructions. For inhibition of gene expression 50 nM of siRNA was used. […]
To test miRNA activity, cells were transfected with 0.2 ug plasmid expressing the 3′UTR of ESR which contains a target site for miR-206, 2 μg of either plasmid expressing miR-206 or K12-4, and 10 nM siRNA. Luciferase activity was read 30 h later, using the Dual Luciferase Reporter Assay Kit (Promega, Madison, USA) on a Glo-Max Multi fluorescence reader (Promega). […] Percent miRNA activity was calculated as 100−percent inhibition luciferase expression.

Substance: Alix siRNA: Qiagen siRNA targeting Alix: AAGAGCTGTGTGTTGTTCAAT (SEQ ID NO. 5), GAGGTACTTTATACTAACATA (SEQ ID NO. 6) (two separate commercial siRNAs, chemistry not given here)
- activity of let-7 compared to control with mutated let-7 site [1]: significantly inhibited
- let-7a activity in dual-luciferase assay [1]: inhibited
- specific activity of miR-206 (estrogen receptor-α 3'UTR reporter) [2]: inhibited
- specific activity of miR-206 [2]: inhibited

Substance: Hrs siRNA: Qiagen siRNA targeting Hrs: CCGGAACGAGCCCAAGTACAA (SEQ ID NO. 1), GCACGTCTTTCCAGAATTCAA (SEQ ID NO. 2) (two separate commercial siRNAs, chemistry not given here)
- activity of let-7 compared to control with mutated let-7 site [1]: significantly inhibited
- let-7a activity in dual-luciferase assay [1]: inhibited
- specific activity of miR-206 (estrogen receptor-α 3'UTR reporter) [2]: inhibited
- specific activity of miR-206 [2]: inhibited
